Consider 21 compounds from patent publication US7951551B2, “Kits and reagents for luciferase detection assay system” (PerkinElmer Life and Analytical Sciences B.V., priority 2005, dated 2011).

The term pKa denotes the negative logarithm of the acid dissociation constant.

Like-named read-outs stand apart in the source and are kept apart here.

Series [1] addresses T1, luciferase (Photinus pyralis, UniProt P08659). Put plainly: Light yield of the luciferin-luciferase reaction (luciferase detection, TopCount luminescence, 0-420 min). The class given is biochemical, firefly. The note with it: for final concentration up to which light yield increases: with 0.25 M phosphate. The text has this:
A stock solution of 4.0 M Tris (source of ammonium ions) was neutralized with phosphoric acid (H3PO4) until a pH of 7.0 was reached. This stock buffer solution contained 2.0 M of phosphate. The stock solution was used to make a range of assay reagents comprising, respectively, 2.2, 1.1, 0.55, 0.275, 0.138, 0.069, 0.034 and 0.017 M Tris. The phosphate concentration in these assay reagents was […] phosphate, respectively.
Each reagent was checked for its pH to be 7.0 and was adjusted with small amounts of H3PO4 (several μl of a 2 M H3PO4 solution) if needed. The phosphate anions added in this manner had no significant effect on the above reported phosphate concentration. Each assay reagent was supplemented with D-luciferin, ATP and sodium-thiosulfate (Na2S2O3) by the addition of 250 μl of a freshly prepared stock solution (30 mM ATP, 3 mM D-luciferin, 100 mM thiosulfate adjusted to pH=7.0 with 1 M NaOH) to 2250 μl of assay reagent.
Luciferase was lyophilized in Dulbecco's-PBS with Mg and Ca (D'PBS^++) containing 0.05 g/ml trehalose and 0.016 g/ml BSA). Luciferase samples were prepared by reconstituting lyophilized luciferase in 200 μl water. The resulting solution was then diluted 100-fold by adding 150 μl of the reconstituted luciferase to 15 ml PBS (8.1 mM NaH2PO4, 1.5 mM KH2PO4, 2.7 mM KCl and 137 mM NaCl) containing 5 mM MgCl2, 5 mM CaCl2, 5 mM EDTA, 0.4% Thesit (a non-ionic detergent) and 0.1% bovine serum albumin (BSA). This yielded the “luciferase sample” solution which contained 27 ng/ml of luciferase.
The microplate was shaken for 10 seconds at 1100 rpm on a microplate-shaker and then immediately placed in a TopCount®-NXT Microplate Scintillation and Luminescence Counter. The resulting luminescent light signal was measured immediately after loading the microplate into the counter. The measurement was repeated after 5 and 10 minutes.
Final Tris concentrations in the different reaction mixtures were: 1.0, 0.5, 0.25, 0.125, 0.063, 0.031, 0.016 and 0.008 M. The phosphate concentrations were 0.5, 0.25, 0.125, 0.063, 0.031, 0.016, 0.008 and 0.004 M phosphate ions respectively. Final Mg^2+, D-luciferin, ATP, thiosulfate and luciferase concentrations in the reaction mixtures were 2.5 mM, 150 μM, 1.5 mM, 5 mM and 14 pg/μl, respectively.
FIG. 1 illustrates the effect of increasing Tris-phosphate concentrations in the luciferin-luciferase reaction mixture on the initial height and the decay of the light signal. To compare the total light yield (expressed as 10^9 counts) of each reaction mixture the areas under the curves were calculated by integrating the equations of the curves between 0 and 420 minutes. These equations of the curves were obtained using the option ‘trend line with equation’ of Microsoft Excel® software.
Stock solutions of 4.0 M ethanolamine (H2NCH2CH2OH) and 3.0 M ammonium-phosphate ((NH4)2HPO4) were neutralized with phosphoric acid (H3PO4) until pH 7.0 was reached. Dilutions were made in the same manner as described in example 1. Furthermore, all methods and other chemicals used to create the assay mixture and to test this for its light yield in a luciferin-luciferase reaction, were standardized and thus the same as in example 1. Final ethanolamine concentrations in the assay were 1.0, 0.5, 0.25, 0.125, 0.063, 0.031, 0.016 and 0.008 M, and 0.5, 0.25, 0.125, 0.063, 0.031, 0.016, 0.008 and 0.004 M phosphate, respectively. According to the present invention, a final concentration of 1M ethanolamine is assumed to provide the aqueous, neutral reaction mixture with 1M of ammonium ions. Thus, the concentration of ammonium ions in the reaction mixture is regarded to be identical to that of the source of ammonium ions. […]
Quantification of the reaction kinetics through surface area calculation under the curves is shown in Table 4 (ethanolamine-phosphate dilutions) and Table 5 (for ammonium-phosphate dilutions). […]
Target sequence in this assay (P08659 whole entry): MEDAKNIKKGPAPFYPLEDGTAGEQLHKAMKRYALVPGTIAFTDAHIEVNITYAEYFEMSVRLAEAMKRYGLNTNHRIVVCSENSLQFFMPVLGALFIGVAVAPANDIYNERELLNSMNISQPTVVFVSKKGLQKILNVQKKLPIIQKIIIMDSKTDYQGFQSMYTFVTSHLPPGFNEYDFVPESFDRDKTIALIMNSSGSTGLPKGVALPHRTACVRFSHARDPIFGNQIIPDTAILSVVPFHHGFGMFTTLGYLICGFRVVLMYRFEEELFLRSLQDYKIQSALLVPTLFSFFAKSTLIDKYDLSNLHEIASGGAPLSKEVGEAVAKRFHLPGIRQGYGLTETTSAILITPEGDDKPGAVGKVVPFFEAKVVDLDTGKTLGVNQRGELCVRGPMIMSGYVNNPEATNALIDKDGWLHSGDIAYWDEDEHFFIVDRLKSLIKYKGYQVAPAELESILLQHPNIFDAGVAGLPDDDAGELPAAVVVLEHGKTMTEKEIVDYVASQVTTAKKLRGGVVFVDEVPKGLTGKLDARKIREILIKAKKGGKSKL

Series [2] concerns the target Photinus pyralis luciferase (Photinus pyralis, UniProt P08659). The note with it: compared to freshly prepared luciferase solution; 10% without DTT; cited from earlier work.
The conditions of series [3]: cited from earlier work; for pKa (D/° C.): temperature coefficient of pKa, in brackets.
The target of series [4] is T1, luciferase. The conditions noted are these: CoA in the assay reagent (U.S. Pat. No. 5,283,179); cited from earlier work.
Target sequence in this assay (P08659 whole entry): as above
For series [5], the target named is T1, luciferase. The series can be described thus: Light yield of the luciferin-luciferase reaction (luciferase detection, TopCount luminescence, 0-420 min). It counts as biochemical, firefly. The note with it: 0.5 mM reducing agent, 0.5 M Tris and 0.25 M phosphate.
Target sequence in this assay (P08659 whole entry): as above
The conditions of series [6]: cited from earlier work.
Series [7] addresses T1, luciferase. Further details: host or cells: eukaryotic cells (unspecified). The note with it: 1% detergent, chemical lysis of eukaryotic cells; cited from earlier work.
Target sequence in this assay (P08659 whole entry, species assumed): as the sequence (P08659 whole entry) above
Series [8] concerns the target T1, luciferase. The note with it: ATP assay, higher Tris-phosphate ion concentrations, integral 1-420 minutes.
Target sequence in this assay (P08659 whole entry): as above
Procedure: (§1) For this experiment 16 different reagent mixtures were prepared; 8 mixtures (for the ATP assay) contained a large amount of luciferase, a small amount of ATP and increasing Tris-phosphate concentrations and 8 mixtures (for the luciferase assay) contained a large amount of ATP, a small amount of luciferase and increasing amounts of Tris-phosphate. To reduce variances that might be introduced by small concentrations differences between the reagents, all reagents were made from the same stock solutions where possible.
An “ATP sample” was prepared by diluting a reconstituted lyophilized ATP standard (PerkinElmer Inc.) in D'PBS^++ resulting in a 1.0×10^−8 mM ATP solution.
(§2) Likewise, in the same microplate the reaction kinetics when assaying for luciferase were measured by pipetting 100 μl of each Tris-phosphate concentration reagent with ATP, and adding 100 μl of “luciferase sample”.
(§3) The microplate was shaken for 10 seconds on a microplate-shaker and sealed with TopSeal-A™ (PerkinElmer Inc.). […] The luminescent light signal was immediately measured, meaning about 1 minute after mixing reagent and sample, and after 5 and 10 minutes. Hereafter the signal was measured repeatedly with 15 minute intervals to a total time of 420 minutes. […] The emitted light was quantified as counts per second (cps), count time 3 seconds per well.
The target in series [9] is T1, luciferase. The conditions noted are these: luciferase assay, up to 100 mM Tris-phosphate, integral 1-420 minutes.
Target sequence in this assay (P08659 whole entry): as above
Procedure: as §1
A “luciferase sample” was prepared by reconstituting a lyophilized luciferase control sample (PerkinElmer Inc.) in H2O and diluting this in Dulbecco's PBS with Ca/Mg (D'PBS^++) to a 1.0×10^−7 g/l luciferase solution.
as §2, §3
Setting [10] is: 5 mM reducing agent, 0.5 M Tris and 0.25 M phosphate.

Sequence of Photinus pyralis luciferase (P08659 whole entry): as above

Take `O[C@H](CS)[C@H](O)CS` (racemic) [DTT, dithiothreitol]: at luciferase [1] (setting [10]), the “Light Yield” value was 167.5 10^9counts. Moreover, the “luciferase activity maintained in aged luciferase solution” value in [2] is reported as 50%.
As to `NC(=O)CNCCS(=O)(=O)O` [ACES, N-(2-acetamido)-2-aminoethanesufonic acid], in series [3], the “pKa at 20° C.” value is 6.88 and the “pKa (D/° C.)” value is −0.020 D/° C.
Regarding `NC(=O)CN(CC(=O)O)CC(=O)O` [ADA, N-(2-acetamido)iminodiacetic acid], the “pKa (D/° C.)” value in series [3] is recorded as −0.011 D/° C.
As for `N.N.N.O=P(O)(O)O` [Ammonium, ammonium-phosphate], the “Light Yield” value on luciferase [1] (0.016 M ammonium, […] phosphate, pH 7.0, 28 mM MOPS) is 31.8 10^9counts; on luciferase [1] (0.031 M ammonium, 0.021 M phosphate, pH 7.0, 28 mM MOPS), 43.7 10^9counts; on luciferase [1] (0.063 M ammonium, 0.043 M phosphate, pH 7.0, 28 mM MOPS) it was 69.3 10^9counts; at luciferase [1] (0.125 M ammonium, 0.088 M phosphate, pH 7.0, 28 mM MOPS), 83.2 10^9counts; on luciferase [1] (0.25 M ammonium, 0.175 M phosphate, pH 7.0, 28 mM MOPS), 88.9 10^9counts; at luciferase [1] (0.5 M ammonium, 0.35 M phosphate, pH 7.0, 28 mM MOPS) it was 113.1 10^9counts. Further, the “Light Yield” value on luciferase [1] (1.0 M ammonium, 0.7 M phosphate, pH 7.0, 28 mM MOPS) is on record as 80.7 10^9counts; on luciferase [1] (2.0 M ammonium, 1.4 M phosphate, pH 7.0, 28 mM MOPS), 44.6 10^9counts. Also, the “concentration up to which light yield increases” value on luciferase [1] (with 350 mM of phosphate) is recorded as 500 mM.
Regarding `O=S(=O)(O)CCN(CCO)CCO` [BES, N,N-bis(2-hydroxyethyl)-2-aminoethanesulfonic acid], the “pKa (D/° C.)” value in series [3] is “(−0.016) D/° C”.
Regarding `O=C(O)CN(CCO)CCO` [Bicine, N,N-bis(2-hydroxyethyl)glycine], in [3], the “pKa (D/° C.)” value is given as “(−0.018) D/° C”.
In the case of `O=S(=O)(O)CCCNC1CCCCC1` [CAPS, 3-(cyclohexylamino)-1-propanesulfonic acid], the “pKa (D/° C.)” value in [3] is “(0.032) D/° C”.
For `O=S(=O)(O)CCNC1CCCCC1` [CHES, 2-(cyclohexylamino)-1-ethanesulfonic acid], in [3], the “pKa at 20° C.” value was 9.55 and the “pKa (D/° C.)” value is “(−0.011) D/° C”.
Turning to `CC(C)(COP(=O)(O)OP(=O)(O)OC[C@H]1O[C@@H](n2cnc3c(N)ncnc32)[C@H](O)[C@@H]1OP(=O)(O)O)[C@@H](O)C(=O)NCCC(=O)NCCS` [CoA, coenzyme A], the “time for which increased light output is maintained” value on luciferase [4] is reported as “at least 60 seconds”.
In the case of `NCCO` [Ethanolamine, ethanolamine], the “Light Yield” value is on record as 41.6 10^9counts on luciferase [1] (0.008 M ethanolamine, 0.004 M phosphate, pH 7.0); 49.6 10^9counts on luciferase [1] (0.016 M ethanolamine, 0.008 M phosphate, pH 7.0); 59.2 10^9counts on luciferase [1] (0.031 M ethanolamine, 0.016 M phosphate, pH 7.0); 70.0 10^9counts on luciferase [1] (0.063 M ethanolamine, 0.031 M phosphate, pH 7.0); 96.2 10^9counts at luciferase [1] (0.125 M ethanolamine, 0.063 M phosphate, pH 7.0); 115.4 10^9counts at luciferase [1] (0.25 M ethanolamine, 0.125 M phosphate, pH 7.0). For the same compound, the “Light Yield” value on luciferase [1] (0.5 M ethanolamine, 0.25 M phosphate, pH 7.0) was 124.8 10^9counts; at luciferase [1] (1.0 M ethanolamine, 0.5 M phosphate, pH 7.0) it was 99.0 10^9counts. For the same compound, at luciferase [1], the “final concentration up to which light yield increases” value is on record as 0.5 M.
Regarding `O=S(=O)(O)CCCN1CCN(CCO)CC1` [HEPPS (EPPS), 4-(2-hydroxyethyl)piperazine-1-propanesulfonic acid], the “pKa (D/° C.)” value in series [3] is recorded as −0.011 D/° C.
Regarding `O=S(=O)(O)CCCN1CCOCC1` [MOPS, 3-morpholinopropanesulfonic acid], the “pKa (D/° C.)” value in series [3] is reported as −0.011 D/° C.
Regarding `O=S(O)(O)=S` [Na2S2O3, sodium-thiosulfate], the “Light Yield” value on luciferase [1] (setting [10]) is reported as 147.7 10^9counts.
Take `O=S([O-])S(=O)[O-].[Na+].[Na+]` [Na2S2O4, sodium-dithionite]: the “Light Yield” value on luciferase [5] is on record as 128.4 10^9counts.
Regarding `O=S([O-])[O-].[Na+].[Na+]` [Na2SO3, sodium-sulfite], the “Light Yield” value at luciferase [1] (setting [10]) is reported as 136.8 10^9counts.
`O=S(=O)(O)CCCNC(CO)(CO)CO` [TAPS, N-[tris(hydroxymethyl)methyl]-3-aminopropanesulfonic acid]: the “pKa (D/° C.)” value in [3] is “(0.018) D/° C”.
Take `O=C(O)CCP(CCC(=O)O)CCC(=O)O` [TCEP, Tris(2-carboxyethyl) phosphine]: the “Light Yield” value on luciferase [1] (setting [10]) is reported as 122.1 10^9counts.
For `O=C(O)CNC(CO)(CO)CO` [Tricine, N-[tris(hydroxymethyl)methyl]-glycine], the “pKa (D/° C.)” value in series [3] is reported as “(−0.021) D/° C”.
In the case of `CC(C)N` [isopropylamine], in series [6], the pKa is given as 10.82.
For the compound Triton™ X-100, the “greater light output over simple freeze-thaw lysis” value on luciferase [7] is listed as ≤ 25 fold.
With tris(hydroxymethyl)aminomethane, the “Light Yield” value at luciferase [1] (0.008 M Tris, 0.004 M phosphate, pH 7.0, 0-420 min) is given as 44.4 10^9counts; on luciferase [1] (0.016 M Tris, 0.008 M phosphate, pH 7.0, 0-420 min), 52.9 10^9counts; at luciferase [1] (0.031 M Tris, 0.016 M phosphate, pH 7.0, 0-420 min), 63.0 10^9counts; at luciferase [1] (0.063 M Tris, 0.031 M phosphate, pH 7.0, 0-420 min), 80.4 10^9counts; on luciferase [1] (0.125 M Tris, 0.063 M phosphate, pH 7.0, 0-420 min) it was 103.4 10^9counts; at luciferase [1] (0.25 M Tris, 0.125 M phosphate, pH 7.0, 0-420 min), 126.8 10^9counts. Further, the “Light Yield” value at luciferase [1] (0.5 M Tris, 0.25 M phosphate, pH 7.0, 0-420 min) was 137.3 10^9counts; on luciferase [1] (1.0 M Tris, 0.5 M phosphate, pH 7.0, 0-420 min) it was 123.8 10^9counts. Also, the “final concentration up to which light yield increases” value on luciferase [1] is given as 0.5 M. The “effect on total luminescence” value is “inhibit total luminescence” on luciferase [8] and “enhances total luminescence” on luciferase [9].
